The compounds below were run against T1, human pancreatic GK (human glucokinase variant 1, GST-fused protein) (Homo sapiens, UniProt P35557) (assay: GK activity test (GK activation rate)). Details: test compound 1 μM; glucose 5 mM; 30 min at room temperature; absorbance at 340 nm with test compound / without test compound.
T1 construct: made in house; host or cells: Escherichia coli (such as BL21 or JM109)
T1 sequence (P35557 1-465): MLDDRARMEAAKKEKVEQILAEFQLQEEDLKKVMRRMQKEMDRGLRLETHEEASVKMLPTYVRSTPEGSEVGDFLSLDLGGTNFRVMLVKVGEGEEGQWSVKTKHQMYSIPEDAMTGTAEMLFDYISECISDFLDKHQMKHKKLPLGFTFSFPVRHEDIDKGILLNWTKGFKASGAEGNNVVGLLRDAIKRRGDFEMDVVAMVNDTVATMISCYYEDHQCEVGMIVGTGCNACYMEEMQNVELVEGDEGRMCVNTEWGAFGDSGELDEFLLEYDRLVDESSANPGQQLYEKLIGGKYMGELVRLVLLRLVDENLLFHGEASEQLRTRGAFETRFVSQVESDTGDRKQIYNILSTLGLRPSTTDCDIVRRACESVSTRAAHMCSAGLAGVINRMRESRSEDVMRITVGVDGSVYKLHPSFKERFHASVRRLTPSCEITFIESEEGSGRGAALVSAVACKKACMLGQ
Format: biochemical
Description: cDNA encoding human pancreatic GK polypeptide (GenBank Accession No. NM_000162, human glucokinase variant 1) was cloned from a human cDNA library by polymerase chain reaction (PCR), and introduced into a glutathione S-transferase (GST)-fused protein expression vector (GEX4T, GE Healthcare Bioscience). The vector was introduced into Escherichia coli (such as BL21 or JM109, Invitrogen), and the transformed E. coli was cultured overnight at 37° C. followed by recovery of the cells. After freezing and thawing the recovered cells, the cells were suspended in phosphate buffer containing Triton-X at a final concentration of 1% followed by disrupting the cells with an ultrasonic homogenizer. The supernatant obtained by low-speed centrifugation treatment of the homogenate (10,000×g, 30 minutes) was further subjected to high-speed centrifugation (100,000×g, 10 minutes) followed by recovering the supernatant and purifying the fused protein using a GST fused protein purification system (Bulk GST Purification Module, GE Healthcare Bioscience). The GK fused protein was divided into smaller aliquots and stored at −80° C.
GK activity was measured using the GK purified in (1) above. More specifically, an enzyme solution was prepared by adding the purified GK of (1) above and glucose-6-phosphate dehydrogenase (Sigma) to solution 1 of a glucose assay kit (D-Glucose UV Method, Roche Diagnostics). The enzyme solution, a test compound diluent and glucose (final concentration: 5 mM) were mixed in a 96-well ELISA plate, and allowed to react for 30 minutes at room temperature. Following completion of the reaction, absorbance at a wavelength of 340 nm was measured using SpectraMax Plus (Molecular Probe). Furthermore, unreacted (when glucose was not added) absorbance was used for the background.
GK activation rates were indicated with values represented by the following numerical formula: (absorbance after reacting for 30 minutes when test compound added)/(absorbance after reacting for 30 minutes when test compound not added).

| GK Activation Rate | SMILES |
| --- | --- |
| 2.0 | C[C@@H]1COC(c2ccc(-c3cc(Oc4cnc(S(C)(=O)=O)cn4)cc(O[C@@H](C)CO)c3)[nH]2)=N1 [Example 107, (2S)-2-(3-{5-[(4R)-4-Methyl-4,5-dihydro-1,3-oxazol-2-yl]-1H-pyrrol-2-yl}-5-{[5-(methylsulfonyl)pyrazin-2-yl]oxy}phenoxy)propan-1-ol] |
| 2.4 | COC[C@H](C)Oc1cc(Oc2cnc(S(C)(=O)=O)cn2)cc(-c2ccc(C3=N[C@H](CO)[C@H](C)O3)[nH]2)c1 [Example 110, {(4R,5S)-2-[5-(3-{[(2S)-1-Methoxypropan-2-yl]oxy}-5-{[5-(methylsulfonyl)pyrazin-2-yl]oxy}phenyl)-1H-pyrrol-2-yl]-5-methyl-4,5-dihydro-1,3-oxazol-4-yl}methanol] |
| 2.2 | C[C@@H]1OC(c2ccc(-c3cc(Oc4cnc(S(C)(=O)=O)cn4)cc(O[C@@H](C)CO)c3)[nH]2)=N[C@@H]1C [Example 109, (2S)-2-(3-{5-[(4R,5S)-4,5-Dimethyl-4,5-dihydro-1,3-oxazol-2-yl]-1H-pyrrol-2-yl}-5-{[5-(methylsulfonyl)pyrazin-2-yl]oxy}phenoxy)propan-1-ol] |
| 2.9 | CC[C@@H]1COC(c2ccc(-c3cc(Oc4ccc(S(C)(=O)=O)nc4)cc(O[C@@H](C)CO)c3)[nH]2)=N1 [Example 85, (2S)-2-(3-{5-[(4R)-4-Ethyl-4,5-dihydro-1,3-oxazol-2-yl]-1H-pyrrol-2-yl}-5-{[6-(methylsulfonyl)pyridin-3-yl]oxy}phenoxy)propan-1-ol] |
| 1.9 | Cc1nnc(-c2ccc(-c3cc(Oc4cnc(S(C)(=O)=O)cn4)cc(O[C@@H](C)CO)c3)[nH]2)o1 [Example 98, (2S)-2-(3-[5-(5-Methyl-1,3,4-oxadiazol-2-yl)-1H-pyrrol-2-yl]-5-{[5-(methylsulfonyl)pyrazin-2-yl]oxy}phenoxy)propan-1-ol] |
| 2.1 | COC[C@H](C)Oc1cc(Oc2ccc(C(=O)N3CCC3)cc2F)cc(-c2ccc(-c3nccs3)[nH]2)c1 [Example 41, 2-(5-{3-[4-(Azetidin-1-ylcarbonyl)-2-fluorophenoxy]-5-[(1S)-2-methoxy-1-methylethoxy]phenyl}-1H-pyrrol-2-yl)-1,3-thiazole] |
| 2.0 | C[C@@H](CO)Oc1cc(Oc2ccc(S(C)(=O)=O)cc2)cc(-c2ccc(C3=NCCO3)[nH]2)c1 [Example 21, (2S)-2-{3-[5-(4,5-Dihydro-1,3-oxazol-2-yl)-1H-pyrrol-2-yl]-5-[4-(methylsulfonyl)phenoxy]phenoxy}propan-1-ol] |
| 2.0 | COC[C@H](C)Oc1cc(Oc2ccc(S(C)(=O)=O)cc2)cc(-c2ccc(C3=NCC(CO)O3)[nH]2)c1 (stereo partly drawn) [Example 29, [2-(5-{3-[(1S)-2-Methoxy-1-methylethoxy]-5-[4-(methylsulfonyl)phenoxy]phenyl}-1H-pyrrol-2-yl)-4,5-dihydro-1,3-oxazol-5-yl]methanol] |
| 2.5 | COC[C@H](C)Oc1cc(Oc2ccc(S(C)(=O)=O)nc2)cc(-c2ccc(C3=N[C@H](CO)CO3)[nH]2)c1 [Example 86, {(4R)-2-[5-(3-[(1S)-2-Methoxy-1-methylethoxy]-5-{[6-(methylsulfonyl)pyridin-3-yl]oxy}phenyl)-1H-pyrrol-2-yl]-4,5-dihydro-1,3-oxazol-4-yl}methanol] |
| 2.5 | COC[C@H](C)Oc1cc(Oc2ccc(S(C)(=O)=O)nc2)cc(-c2ccc(C3=N[C@H]([C@@H](C)O)CO3)[nH]2)c1 [Example 95, (1R)-1-{(4S)-2-[5-(3-[(1S)-2-Methoxy-1-methylethoxy]-5-{[6-(methylsulfonyl)pyridin-3-yl]oxy}phenyl)-1H-pyrrol-2-yl]-4,5-dihydro-1,3-oxazol-4-yl}ethanol] |
| 2.3 | C[C@@H](CO)Oc1cc(Oc2ccc(S(C)(=O)=O)cc2)cc(-c2ccc(C3=NCCS3)[nH]2)c1 [Example 26, (2S)-2-{3-[5-(4,5-Dihydro-1,3-thiazol-2-yl)-1H-pyrrol-2-yl]-5-[4-(methylsulfonyl)phenoxy]phenoxy}propan-1-ol] |
| 2.3 | COC[C@H](C)Oc1cc(Oc2ccc(S(C)(=O)=O)nc2)cc(-c2ccc(C3=N[C@H](C)[C@H](CO)O3)[nH]2)c1 [Example 89, {(4R,5R)-2-[5-(3-[(1S)-2-Methoxy-1-methylethoxy]-5-{[6-(methylsulfonyl)pyridin-3-yl]oxy}phenyl)-1H-pyrrol-2-yl]-4-methyl-4,5-dihydro-1,3-oxazol-5-yl}methanol] |
| 2.4 | COC[C@H](C)Oc1cc(Oc2cnc(S(C)(=O)=O)cn2)cc(-c2ccc(C3=N[C@H]([C@H](C)O)CO3)[nH]2)c1 [Example 112, (1S)-1-{(4S)-2-[5-(3-{[(25)-1-Methoxypropan-2-yl]oxy}-5-{[5-(methylsulfonyl)pyrazin-2-yl]oxy}phenyl)-1H-pyrrol-2-yl]-4,5-dihydro-1,3-oxazol-4-yl}ethanol] |
| 2.4 | COC[C@H](C)Oc1cc(Oc2ccc(S(C)(=O)=O)nc2)cc(-c2ccc(C3=N[C@H]([C@H](C)O)CO3)[nH]2)c1 [Example 93, (1S)-1-{(4S)-2-[5-(3-[(1S)-2-Methoxy-1-methylethoxy]-5-{[6-(methylsulfonyl)pyridin-3-yl]oxy}phenyl)-1H-pyrrol-2-yl]-4,5-dihydro-1,3-oxazol-4-yl}ethanol] |
| 2.4 | COC[C@H](C)Oc1cc(Oc2ccc(S(C)(=O)=O)nc2)cc(-c2ccc(-c3nccs3)[nH]2)c1 [Example 65, 5-{3-[(1S)-2-Methoxy-1-methylethoxy]-5-[5-(1,3-thiazol-2-yl)-1H-pyrrol-2-yl]phenoxy}-2-(methylsulfonyl)pyridine] |
| 1.9 | COC[C@H](C)Oc1cc(Oc2cnc(S(C)(=O)=O)cn2)cc(-c2ccc(C3=NC[C@H](CO)O3)[nH]2)c1 [Example 101, {(5R)-2-[5-(3-[(1S)-2-Methoxy-1-methylethoxy]-5-{[5-(methylsulfonyl)pyrazin-2-yl]oxy}phenyl)-1H-pyrrol-2-yl]-4,5-dihydro-1,3-oxazol-5-yl}methanol] |
| 2.0 | COC[C@H](C)Oc1cc(Oc2ncc(C(=O)N3CCC3)cc2Cl)cc(-c2ccc(C3=NC[C@H](C)O3)[nH]2)c1 [Example 74, 5-(Azetidin-1-ylcarbonyl)-3-chloro-2-(3-[(1S)-2-methoxy-1-methylethoxy]-5-{5-[(5S)-5-methyl-4,5-dihydro-1,3-oxazol-2-yl]-1H-pyrrol-2-yl}phenoxy)pyridine] |
| 2.0 | COC[C@H](C)Oc1cc(Oc2ccc(S(C)(=O)=O)cc2)cc(-c2ccc(C3=NC[C@H](C)O3)[nH]2)c1 [Example 31, (5S)-2-(5-{3-[(1S)-2-Methoxy-1-methylethoxy]-5-[4-(methylsulfonyl)phenoxy]phenyl}-1H-pyrrol-2-yl)-5-methyl-4,5-dihydro-1,3-oxazole] |
| 2.0 | COC[C@H](C)Oc1cc(Oc2ccc(S(C)(=O)=O)cc2)cc(-c2ccc(C3=NCCS3)[nH]2)c1 [Example 25, 2-(5-{3-[(1S)-2-Methoxy-1-methylethoxy]-5-[4-(methylsulfonyl)phenoxy]phenyl}-1H-pyrrol-2-yl)-4,5-dihydro-1,3-thiazole] |
| 2.6 | CNC(=O)c1ccc(Oc2cc(O[C@@H](C)CO)cc(-c3ccc(C4=NC[C@H](C)O4)[nH]3)c2)cn1 [Example 123, 5-(3-[(1S)-2-Hydroxy-1-methylethoxy]-5-{5-[(5S)-5-methyl-4,5-dihydro-1,3-oxazol-2-yl]-1H-pyrrol-2-yl}phenoxy)-N-methylpyridine-2-carboxamide] |
| 2.2 | COC[C@H](C)Oc1cc(Oc2cnc(S(C)(=O)=O)cn2)cc(-c2ccc(C3=N[C@H]([C@@H](C)O)CO3)[nH]2)c1 [Example 114, (1R)-1-{(4S)-2-{[5-(3-[(2S)-1-Methoxypropan-2-yl]oxy}-5-{[5-(methylsulfonyl)pyrazin-2-yl]oxy}phenyl)-1H-pyrrol-2-yl]-4,5-dihydro-1,3-oxazol-4-yl}ethanol] |
| 2.0 | COC[C@H](C)Oc1cc(Oc2ccc(C(=O)N3CCC3)cc2F)cc(-c2ccc(C3=NCCO3)[nH]2)c1 [Example 68, 2-(5-{3-[4-(Azetidin-1-ylcarbonyl)-2-fluorophenoxy]-5-[(1S)-2-methoxy-1-methylethoxy]phenyl}-1H-pyrrol-2-yl)-4,5-dihydro-1,3-oxazole] |
